Laboratory results reported in publication PMC7465040, “Cytotoxic and Anti-Plasmodial Activities of Stephania dielsiana Y.C. Wu Extracts and the Isolated Compounds” (Molecules, 2020).
Like-named read-outs stand apart in the source and are kept apart here.

Key:
MDA-MB-231 = assay: SRB cell proliferation assay, MDA-MB-231; type: cell-based, human; settings: for IC50: Homo sapiens; for Selectivity index (SI) 184B5 versus MDA-MB-231 / Selectivity index (SI) MCF10A versus MDA-MB-231: Table 2B; for Selectivity index (SI) 184B5 versus MDA-MB-231: non-cancer 184B5 vs cancer MDA-MB-231; for Selectivity index (SI) MCF10A versus MDA-MB-231: non-cancer MCF10A vs cancer MDA-MB-231
Experimental: (§1) In vitro anticancer study: The in vitro anti-proliferative tests were carried out as described previously, using aliquots of the cell lines used therein. Briefly, HeLa, MDA-MB-231 and MDA-MB-468, MCF7, and 184B5 and MCF 10A cell lines were purchased from ATCC. The identity of the cell lines presented in this study were verified by short tandem repeat profiling by Genetica DNA Laboratories (www.celllineauthentication.com) (April 8, 2015). MCF10A was grown in DMEM F12 medium supplemented with 0.02 μg/mL epidermal growth factor, 10% FBS, 10 μg/mL insulin and […] hydrocortisone. MDA-MB-468 were grown in DMEM supplemented with 10% FBS and antibiotics cocktail (100 μg/mL streptomycin, 100 units/mL penicillin and 250 ng/mL amphotericin B). SRB cell proliferation assays were carried out as previously described, with some minor modifications. The concentration range for all tested cell lines were from 100–0.39 μg/mL for extracts and 100–0.39 μM for pure compounds. […] All experiments were carried out at least twice.

184B5 = assay: SRB cell proliferation assay, 184B5 non-cancer cells; type: cell-based, human; settings: Homo sapiens
Experimental: as §1

MCF 10A = assay: SRB cell proliferation assay, MCF10A non-cancer cells; type: cell-based; settings: Homo sapiens
Experimental: as §1

HeLa = assay: SRB cell proliferation assay, HeLa; type: cell-based, human; settings: for IC50: Homo sapiens, HeLa; for Selectivity index (SI) 184B5 versus HeLa / Selectivity index (SI) MCF10A versus HeLa: Table 2B; for Selectivity index (SI) 184B5 versus HeLa: non-cancer 184B5 vs cancer HeLa; for Selectivity index (SI) MCF10A versus HeLa: non-cancer MCF10A vs cancer HeLa
Experimental: as §1

MDA-MB-468 = assay: SRB cell proliferation assay, MDA-MB-468; type: cell-based, human; settings: for IC50: Homo sapiens; for Selectivity index (SI) 184B5 versus MDA-MB-468 / Selectivity index (SI) MCF10A versus MDA-MB-468: Table 2B; for Selectivity index (SI) 184B5 versus MDA-MB-468: non-cancer 184B5 vs cancer MDA-MB-468; for Selectivity index (SI) MCF10A versus MDA-MB-468: non-cancer MCF10A vs cancer MDA-MB-468
Experimental: as §1

[1] = test system: chloroquine-resistant W2 P. falciparum strain; assay: In vitro anti-plasmodial assay (HRP2 ELISA), W2; type: cell-based, Plasmodium falciparum; settings: for IC50: Plasmodium falciparum, W2, 72 h, read-out: IC50 (μM ± SD) W2; for SI W2 184B5 / SI W2 MCF10A: Table 3; for SI W2 184B5: selectivity index between 184B5 and parasites W2; for SI W2 MCF10A: selectivity index between MCF10A and parasites W2
Experimental: (§2) Parasites were grown in A-positive human blood (Etablissement Français du Sang, Marseille, France) under controlled atmospheric conditions that consisted of 10% O2, 5% CO2, and 85% N2 at 37 °C with a humidity of 95%.
(§3) In vitro anti-plasmodial assay: The two P. falciparum strains 3D7 and W2 were synchronized twice with sorbitol before use. The clonality of these strains was verified both in our laboratory and in an independent laboratory from the Worldwide Anti-malarial Resistance Network (WWARN) by PCR genotyping of the polymorphic genetic markers msp1 and msp2 and microsatellite loci. The compounds were re-suspended in methanol or DMSO 5% (v/v) and then diluted in methanol to obtain final concentrations ranging from 0.008 to 500 μg/mL (final concentration of 0.5% of methanol or DMSO). […] The plates were incubated for 72 h at 37 °C in controlled atmospheric conditions 5% CO2, 10% O2, and […]. After thawing the plates, haemolysed cultures were homogenized by vortexing the plates. Both the success of the drug susceptibility assay and the appropriate volume of haemolysed culture to use for each assay were determined for each clinical isolate during a preliminary HRP2 ELISA. Both the pre-test and subsequent ELISA assays were performed using a commercial kit (Malaria Ag Celisa, ref KM2159, Cellabs PTY LTD, Brookvale, Australia) according to the manufacturer’s recommendation. The optical density (OD) of each sample was measured with a spectrophotometer (Safire 2, Tecan, Lyon, France). […] The anti-plasmodial in vitro assay was performed five times for each product. The IC50 values represented the mean value calculated from five experiments. According to Hout, a selectivity index (SI) was based on the ratio between anti-parasitic and cytotoxic activities. In the case of our study, a SI was calculated between non-tumorigenic cell line 184B5 and parasites 3D7 or W2 and/or MCF10A and these two parasites.

[2] = test system: chloroquine-susceptible 3D7 P. falciparum strain; assay: In vitro anti-plasmodial assay (HRP2 ELISA), 3D7; type: cell-based, Plasmodium falciparum; settings: for IC50: Plasmodium falciparum, 3D7, 72 h, read-out: IC50 (μM ± SD) 3D7; for SI 3D7 184B5 / SI 3D7 MCF10A: Table 3; for SI 3D7 184B5: selectivity index between 184B5 and parasites 3D7; for SI 3D7 MCF10A: selectivity index between MCF10A and parasites 3D7
Experimental: as §2, §3

MCF7 = assay: SRB cell proliferation assay, MCF7; type: cell-based, human; settings: for IC50: Homo sapiens; for Selectivity index (SI) 184B5 versus MCF7 / Selectivity index (SI) MCF10A versus MCF7: Table 2B; for Selectivity index (SI) 184B5 versus MCF7: non-cancer 184B5 vs cancer MCF7; for Selectivity index (SI) MCF10A versus MCF7: non-cancer MCF10A vs cancer MCF7
Experimental: as §1

[3] = test system: HeLa, MDA-MB231, MDA-MB-468, MCF7, 184B5 and MCF10A cell lines; assay: SRB cell proliferation assay, whole panel of cell lines; type: cell-based, human; settings: Homo sapiens, read-out: IC50 values, range over the cell lines examined
Experimental: as §1

[4] = test system: Plasmodium falciparum 3D7 and W2 strains; assay: In vitro anti-plasmodial assay, both strains; type: cell-based
Experimental: as §2, §3

[5] = MDA-MB-231, 72 h, read-out: IC50 (μM ± SD) MDA-MB-231
[6] = 184B5, 72 h, read-out: IC50 (μM ± SD) 184B5
[7] = 184B5, read-out: IC50 (μM ± SD) 184B5
[8] = 72 h, read-out: IC50 (μM ± SD) MCF 10A
[9] = read-out: IC50 (μM ± SD) MCF 10A
[10] = 72 h, read-out: IC50 (μM ± SD) HeLa
[11] = MDA-MB-468, 72 h, read-out: IC50 (μM ± SD) MDA-MB-468
[12] = MCF7, 72 h, read-out: IC50 (μM ± SD) MCF7
[13] = 72 h, HRP2 ELISA, mean of five experiments

Row | SMILES | IC50 (MDA-MB-231; [5]) | IC50 (184B5; [6]) | IC50 (184B5; [7]) | IC50 (MCF 10A; [8]) | IC50 (MCF 10A; [9]) | IC50 (HeLa; [10]) | IC50 (MDA-MB-468; [11]) | IC50 [1] | IC50 [2] | IC50 (MCF7; [12]) | Selectivity index (SI) 184B5 versus MDA-MB-231 (MDA-MB-231) | Selectivity index (SI) MCF10A versus MDA-MB-231 (MDA-MB-231) | Selectivity index (SI) 184B5 versus HeLa (HeLa) | Selectivity index (SI) MCF10A versus HeLa (HeLa) | Selectivity index (SI) 184B5 versus MDA-MB-468 (MDA-MB-468) | Selectivity index (SI) MCF10A versus MDA-MB-468 (MDA-MB-468) | SI W2 184B5 [1] | SI 3D7 184B5 [2] | Selectivity index (SI) 184B5 versus MCF7 (MCF7) | Selectivity index (SI) MCF10A versus MCF7 (MCF7) | also measured
1 | CCN(CC)CCCC(C)Nc1ccnc2cc(Cl)ccc12 (centres unmarked) [Chloroquine, reference compound] | 28.9 ± 0.4 µM | > 50 µM | > 50 µM | 40.5 ± 9.8 µM | 40.5 ± 9.8 µM | 29.8 ± 0.7 µM | 33.2 ± 0.4 µM | 0.38 ± 0.03 µM | 0.021 ± 0.005 µM | > 50 µM | – | – | – | – | – | – | – | – | – | – | –
2 | COc1ccc2c(c1OC)CC1c3c(cc4c(c3-2)OCO4)CCN1C (centres unmarked) [Crebanine 4, crebanine] | 38.9 ± 7.1 µM | 47.4 ± 2.83 µM | 47.4 ± 2.83 µM | 47.2 ± 4.37 µM | 47.2 ± 4.37 µM | 48.1 ± 2.38 µM | 17.8 ± 4.63 µM | 2.16 ± 0.38 µM | 1.56 ± 0.22 µM | 30.5 ± 4.89 µM | 1.22 | 1.21 | 0.99 | 0.98 | 2.66 | 2.65 | 21.96 | 30.41 | 1.56 | 1.55 | IC50 [3]: 17 to 48 µM; SI W2 MCF10A [1]: 21.83; Anti-plasmodial activity against both 3D7 and W2 (in words) [4]: strong activity; SI 3D7 MCF10A [2]: 30.23; Selective index SI on 3D7 strain ([2]; vs 184B5 and MCF10A): > 20
3 | C[C@H]1[C@@H](O)O[C@@H]2O[C@@]3(C)CC[C@H]4[C@H](C)CC[C@@H]1[C@@]24OO3 [Dihydroartemisinin, reference compound] | – | – | – | – | – | – | – | – | – | – | – | – | – | – | – | – | – | – | – | – | IC50 [1, 13]: 0.002 ± 0.001 µM; IC50 [2, 13]: 0.002 ± 0.001 µM
4 | OC(c1cc(C(F)(F)F)nc2c(C(F)(F)F)cccc12)C1CCCCN1 (centres unmarked) [Mefloquine, reference compound] | – | – | – | – | – | – | – | – | – | – | – | – | – | – | – | – | 490.9 | 207.6 | – | – | IC50 (184B5; 184B5, Table 3, non-cancer cell line, read-out: IC50 (μM ± SD) 184B5): 10.8 ± 0.75 µM; IC50 [1, 13]: 0.022 ± 0.006 µM; IC50 [2, 13]: 0.052 ± 0.009 µM
5 | CC(=O)O[C@H]1C(=O)[C@@]2(C)[C@H]([C@H](OC(=O)c3ccccc3)[C@]3(O)C[C@H](OC(=O)[C@H](O)[C@@H](NC(=O)c4ccccc4)c4ccccc4)C(C)=C1C3(C)C)[C@]1(OC(C)=O)CO[C@@H]1C[C@@H]2O [Paclitaxel, reference compound] | – | – | – | – | – | – | – | – | – | – | 1.67 | 1.10 | 0.7 | 0.44 | 0.67 | 0.42 | – | – | 0.98 | 0.62 | IC50 (MDA-MB-231; MDA-MB-231, Table 2A, paclitaxel in nM (footnote a), read-out: IC50 MDA-MB-231): 0.00158 ± 0.00075 µM; IC50 (184B5; 184B5, Table 2A, paclitaxel in nM (footnote a), read-out: IC50 184B5): 0.00265 ± 0.00191 µM; IC50 (MCF 10A; Table 2A, paclitaxel in nM (footnote a), read-out: IC50 MCF 10A): 0.00167 ± 0.00021 µM; IC50 (HeLa; Table 2A, paclitaxel in nM (footnote a), read-out: IC50 HeLa): 0.00381 ± 0.00042 µM; IC50 (MDA-MB-468; MDA-MB-468, Table 2A, paclitaxel in nM (footnote a), read-out: IC50 MDA-MB-468): 0.00396 ± 0.00032 µM; IC50 (MCF7; MCF7, Table 2A, paclitaxel in nM (footnote a), read-out: IC50 MCF7): 0.00271 ± 0.00111 µM
6 | COc1cccc2c1C[C@@H]1c3c(cc4c(c3-2)OCO4)CCN1C [Stephanine 3, stephanine] | 5.66 ± 0.16 µM | 6.25 ± 0.14 µM | 6.25 ± 0.14 µM | 7.19 ± 0.33 µM | 7.19 ± 0.33 µM | 3.33 ± 0.23 µM | 7.14 ± 2.11 µM | 1.32 ± 0.38 µM | 0.69 ± 0.15 µM | 6.49 ± 0.43 µM | 1.10 | 1.27 | 1.88 | 2.16 | 0.88 | 1.01 | 4.73 | 9.06 | 0.96 | 1.11 | Anti-plasmodial activity on W2 (in words) [1]: not effective; SI W2 MCF10A [1]: 5.45; Anti-plasmodial activity on 3D7 (in words) [2]: very effective; SI 3D7 MCF10A [2]: 10.42
